According to paper PMC11618052, “Design, synthesis, and antiproliferative activity of new 1,2,3-triazole/quinazoline-4-one hybrids as dual EGFR/BRAF^V600E inhibitors” (RSC Advances, 2024):
Values joined by “and” are separate entries in the source; they are usually repeats but may differ in a detail not shown here. Identical values can stand only once.

Tests used:
[1] = test system: Caspase-8; test: Caspase-8 level assay in MCF-7; assay type: cell-based, human; settings: for Caspase-8 Fold change: MCF-7, versus untreated control; for Caspase-8 Conc.: MCF-7 cancer cell line
Protocol: Compounds 8g and 8h were evaluated as caspase-3, 8 and Bax activators and as down-regulator of the anti-apoptotic protein Bcl2 against the MCF-7 breast cancer cell line.[40] Appendix A ^† contains more details.
Compound 8g had the most overexpression of caspase-8 (2.60 ng mL^−1), followed by compound 8h (2.10 ng mL^−1) and staurosporine as a control (1.80 ng mL^−1). […]
monitored, and the substrate reaction stopped before the O.D. of the positive wells exceeds the limits of the instrument. The O.D. values at 450 nm can only be read after the Stop Solution has been added to each well. If using a reader that records only to 2.0 O.D., stopping the assay after […]
Add 100 μl of Stop Solution to each well. Tap side of plate gently to mix. The solution in the wells should change from blue to yellow. Read the absorbance of each well at 450 nm having blanked the plate reader against a chromogen blank composed of 100 μl each of Stabilized Chromogen and Stop Solution. Read the plate within 2 hours after adding the Stop Solution. Use a curve fitting software to generate the standard curve. A four-parameter algorithm provides the best standard curve fit. Read the concentrations for unknown samples and controls from the standard curve. Multiply value(s) obtained for sample(s) by the appropriate dilution factor to correct for the dilution in step 3. Samples producing signals greater than that of the highest standard should be diluted in Standard Diluent Buffer and reanalyzed.
4.2.1.6. Caspase-8 activation assay
Cells were obtained from American Type Culture Collection, cells were grown in RPMI 1640 containing 10% fetal bovine serum at 37°C, stimulated with the compounds to be tested for caspase8, and lysed with Cell Extraction Buffer. This lysate was diluted in Standard Diluent Buffer over the range of the assay and measured for human active caspase-8 content. (Cells are Plated in a density of 1.2 – 1.8 × 10,000 cells/well in a volume of 100µl complete growth medium + 100 ul of the tested compound per well in a 96-well plate for 24 hours before the enzyme assay for Tubulin.). The absorbance of each microwell was read on a spectro-photometer at 450 nm. A standard curve is prepared from 7human Caspase-8 standard dilutions and human Caspase-8 concentration determined.
4.2.1.7. Bax activation assay

[2] = test system: Bax; test: Bax level assay in MCF-7; assay type: cell-based, human; settings: for Bax Fold change: MCF-7, versus untreated control; for Bax Conc.: MCF-7 cancer cell line
Protocol: Compounds 8g and 8h were evaluated as caspase-3, 8 and Bax activators and as down-regulator of the anti-apoptotic protein Bcl2 against the MCF-7 breast cancer cell line.[40] Appendix A ^† contains more details. […]
Bring all reagents, except the human Bax-α Standard, to room temperature for at least 30 minutes prior to opening. The human Bax-α Standard solution should not be left at room temperature for more than 10 minutes. All standards, controls and samples should be run in duplicate. Refer to the Assay Layout Sheet to determine the number of wells to be used and put any remaining wells with the desiccant back into the pouch and seal the ziploc. Store unused wells at 4 °C. Pipet 100 μL of Assay Buffer into the S0 (0 pg/mL standard) wells. Pipet 100 μL of Standards #1 through #6 into the appropriate wells. Pipet 100 μL of the Samples into the appropriate wells. Tap the plate gently to mix the contents. Seal the plate and incubate at room temperature on a plate shaker for 1 hour at ~500 rpm. Empty the contents of the wells and wash by adding 400 μL of wash solution to every well. Repeat the wash 4 more times for a total of 5 washes. After the final wash, empty or aspirate the wells and firmly tap the plate on a lint free paper towel to remove any remaining wash buffer.
Pipet 100 μL of yellow Antibody into each well, except the Blank. Seal the plate and incubate at room temperature on a plate shaker for 1 hour at ~500 rpm. Empty the contents of the wells and wash by adding 400 μL of wash solution to every well. Repeat the wash 4 more times for a total of 5 washes. After the final wash, empty or aspirate the wells and firmly tap the plate on a lint free paper towel to remove any remaining wash buffer. Add 100 μL of blue Conjugate to each well, except the Blank. Seal the plate and incubate at room temperature on a plate shaker for 30 minutes […]
Pipet 100 μL of Substrate Solution into each well. Incubate for 30 minutes at room temperature on a plate shaker at ~500 rpm. Pipet 100 μL Stop Solution to each well. Blank the plate reader against the Blank wells, read the optical density at 450 nm. Calculate the average net Optical Density (OD) bound for each standard and sample by subtracting the average Blank OD from the average OD for each standard and sample. Using linear graph paper, plot the Average Net OD for each standard versus Bax concentration in each standard. Approximate a straight line through the points.
The concentration of Bax in the unknowns can be determined by interpolation. […]
Remove plate cover and empty the wells. […]
Incubate the microwell strips at room temperature (18° to 25°C) for about 15 minutes, if available on a rotator set at 100 rpm.

Compound	Caspase-8 Fold change [1]	Caspase-8 Conc. [1]	Bax Fold change [2]	Bax Conc. [2]	Caspase-8 Conc. ([1]; listed as staurosporine) [ng/mL]	Bax Conc. ([2]; listed as staurosporine) [pg/mL]
COc1ccc(-n2cc(CSc3nc4ccccc4c(=O)n3-c3ccc(C)cc3)nn2)cc1 [Compound 8g, 2-(((1-(4-Methoxyphenyl)-1H-1,2,3-triazol-4-yl)methyl)thio)-3-(p-tolyl)quinazolin-4(3H)-one]	28	2.60 ng/mL and 2.60 ± 0.20 ng/mL	39	315 pg/mL and 315 ± 9 pg/mL	–	–
Cc1ccc(-n2cc(CSc3nc4ccccc4c(=O)n3-c3ccc(C)cc3)nn2)cc1 [Compound 8h, 2-(((1-(p-Tolyl)-1H-1,2,3-triazol-4-yl)methyl)thio)-3-(p-tolyl)quinazolin-4(3H)-one]	23	2.10 ng/mL and 2.10 ± 0.20 ng/mL	37	295 pg/mL and 295 ± 9 pg/mL	–	–
CN[C@@H]1C[C@H]2O[C@@](C)([C@@H]1OC)n1c3ccccc3c3c4c(c5c6ccccc6n2c5c31)C(=O)NC4 [Staurosporine, reference compound]	20	1.80 ± 0.10 ng/mL	35	280 ± 7 pg/mL	1.80	280
